Assays:
[1] = xn = mol fraction of the nth substance listed; details: 100 kPa, Liquid, Vibrating tube method, x1 = 0.52
[2] = refractive index (Na D-line) (dimensionless); xn = mol fraction of the nth substance listed; details: 293.15 K; 100 kPa; Liquid; Standard Abbe refractometry; x1 = 0.52

C[C@@H]1CC[C@H](C)O1 [cis-2,5-dimethyltetrahydrofuran] + C[C@@H]1CC[C@@H](C)O1
[1]
Details	mass density [kg/m3]
273.15 K	848.22
283.15 K	838.53
293.15 K	828.71
298.15 K	823.89
303.15 K	818.91

Details	refractive index
[2]	1.4043

Reference: the NIST ThermoML archive (doi:10.1016/j.jct.2018.12.037)
